Patent US20090048258A1, “Amide Compound” (priority 2005, published 2009)

What follows are compounds tested against T1, Human DGAT1 (Homo sapiens, UniProt O75907) (assay: DGAT inhibitory activity: [14C]-triglyceride synthesis by DGAT1 high expression Sf9 microsome). Details: Table 1, 25 μM dioleoylglycerol, 25 μM [14C]-Oleoyl-CoA, 32° C., 15 min, read-out: DGAT inhibitory activity (according to IC50).
T1 construct: my translation of the primer: M-G-DYKDDDD-GDRGSSRRR) (N); made in house; host or cells: Sf9 insect cells (recombinant baculovirus BAC-DGAT1, pFASTBAC1); microsome fraction
T1 sequence (O75907 1-488): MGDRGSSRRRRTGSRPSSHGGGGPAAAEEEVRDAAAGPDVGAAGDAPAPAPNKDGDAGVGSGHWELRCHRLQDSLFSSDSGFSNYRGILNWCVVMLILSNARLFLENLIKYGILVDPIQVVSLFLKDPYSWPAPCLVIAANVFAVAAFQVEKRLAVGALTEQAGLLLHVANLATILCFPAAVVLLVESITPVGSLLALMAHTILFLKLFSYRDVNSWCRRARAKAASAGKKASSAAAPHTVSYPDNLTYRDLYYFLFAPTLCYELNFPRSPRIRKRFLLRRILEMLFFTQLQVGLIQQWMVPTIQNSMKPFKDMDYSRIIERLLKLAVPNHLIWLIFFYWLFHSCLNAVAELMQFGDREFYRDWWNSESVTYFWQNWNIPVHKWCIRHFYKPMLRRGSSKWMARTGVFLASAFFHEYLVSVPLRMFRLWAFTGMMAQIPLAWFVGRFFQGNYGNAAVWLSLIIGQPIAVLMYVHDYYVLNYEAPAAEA
Assay type: biochemical
Procedure, shortened: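 DGAT1 was overexpressed from recombinant baculovirus in Sf9 cells, and microsomes from these cells were the enzyme source. Reactions ran in 100 mM Tris-HCl pH 7.5, 250 mM sucrose, 150 mM MgCl2 and 0.01% BSA. [14C]-triglyceride was extracted into chloroform, separated by TLC and quantified by imaging plate, with inhibition calculated against control and blank (no microsome) counts.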

First: CCOc1ccc(C(=O)CCC(=O)Nc2cc(-c3ccccc3)c(Cc3ccccc3)s2)cc1 [Example 44, N-(5-benzyl-4-phenyl-2-thienyl)-4-(4-ethoxyphenyl)-4-oxobutanamide]
Second: CCOc1ccc(C(=O)CCC(=O)Nc2cc(-c3ccccc3)sc2-c2ccccc2)cc1 [Example 60, N-(2,5-diphenyl-3-thienyl)-4-(4-ethoxyphenyl)-4-oxobutanamide]
The IC50 of the first is lower: 50 to 500 nM for the first, 500 to 10000 nM for the second.

CCOc1ccc(C(=O)NCCNC(=O)c2cc(-c3ccccc3)n(-c3ccc(OC(F)(F)F)cc3)c2C)cc1 [Example 62, N-{2-[(4-ethoxybenzoyl)amino]ethyl}-2-methyl-5-phenyl-1-[4-(trifluoromethoxy)phenyl]-1H-pyrrole-3-carboxamide] and CCOc1ccc(C(=O)NCCNC(=O)c2cc(-c3ccccc3)n(Cc3ccccc3)c2C)cc1 [Example 63, 1-benzyl-N-{2-[(4-ethoxybenzoyl)amino]ethyl}-2-methyl-5-phenyl-1H-pyrrole-3-carboxamide] fall in the same range of IC50: 50 to 500 nM for the first, 50 to 500 nM for the second.

Compared with COc1ccc(C(=O)CCC(=O)Nc2cc(-c3ccccc3)c(Cc3ccccc3)s2)cc1CCCOC(C)=O [Example 53, 3-(5-{4-[(5-benzyl-4-phenyl-2-thienyl)amino]-4-oxobutanoyl}-2-methoxyphenyl)propyl acetate], CCOc1ccc(C(=O)CCC(=O)Nc2nc(-c3ccccc3)c(Cc3ccccc3)s2)cc1OCC [Example 3, N-(5-benzyl-4-phenyl-1,3-thiazol-2-yl)-4-(3,4-diethoxyphenyl)-4-oxobutanamide] is lower in IC50: 50 to 500 nM for the first, at most 10 nM for the second.

First: CCOc1ccc(C(=O)CCC(=O)Nc2cn(Cc3ccccc3)nc2-c2ccccc2)cc1OCC [Example 20, N-(1-benzyl-3-phenyl-1H-pyrazol-4-yl)-4-(3,4-diethoxyphenyl)-4-oxobutanamide]
Second: CCOc1ccc(C(=O)CCC(=O)Nc2cc(-c3ccc(O)cc3)c3ccccc3n2)cc1OCC [Example 22, 4-(3,4-diethoxyphenyl)-N-[4-(4-hydroxyphenyl)quinolin-2-yl]-4-oxobutanamide]
The IC50 of the first is higher: 50 to 500 nM for the first, at most 10 nM for the second.

First: O=C(CCC(=O)c1ccc2c(c1)CCCC2)Nc1nc(-c2ccccc2)c(Cc2ccccc2)s1 [Example 7, N-(5-benzyl-4-phenyl-1,3-thiazol-2-yl)-4-oxo-4-(5,6,7,8-tetrahydronaphthalen-2-yl)butanamide]
Second: O=C(CCC(=O)c1ccc(O)cc1)Nc1nc(-c2ccccc2)c(Cc2ccccc2)s1 [Example 33, N-(5-benzyl-4-phenyl-1,3-thiazol-2-yl)-4-(4-hydroxyphenyl)-4-oxobutanamide]
The IC50 of the first is lower: at most 10 nM for the first, 50 to 500 nM for the second. The first is the more potent here.

Same assay, conditions: Table 2, 25 μM dioleoylglycerol, 25 μM [14C]-Oleoyl-CoA, 32° C., 15 min, read-out: DGAT inhibitory activity (according to IC50)

CCOc1ccc(C(=O)CCC(=O)Nc2cn(-c3ccccc3)nc2-c2ccc(F)cc2)cc1OCC [Example 108, 4-(3,4-diethoxyphenyl)-N-[3-(4-fluorophenyl)-1-phenyl-1H-pyrazol-4-yl]-4-oxobutanamide] and CCOc1ccc(C(=O)CCC(=O)Nc2cc(-c3ccc(C#N)cc3)cc(-c3ccccc3)n2)cc1OCC [Example 122, N-[4-(4-cyanophenyl)-6-phenylpyridin-2-yl]-4-(3,4-diethoxyphenyl)-4-oxobutanamide] fall in the same range of IC50: 50 to 500 nM for the first, 50 to 500 nM for the second.

CCCCc1ccc(C(=O)c2sc(NC(=O)CCC(=O)c3cc(OCC)c(OCC)cc3C)nc2-c2ccccc2)cc1 [Example 69, N-[5-(4-butylbenzoyl)-4-phenyl-1,3-thiazol-2-yl]-4-(4,5-diethoxy-2-methylphenyl)-4-oxobutanamide] and CCOc1ccc(C(=O)CCC(=O)Nc2cc(-c3ccccc3)c3ccc(Br)cc3n2)cc1OCC [Example 81, N-(7-bromo-4-phenylquinolin-2-yl)-4-(3,4-diethoxyphenyl)-4-oxobutanamide] fall in the same range of IC50: 50 to 500 nM for the first, 50 to 500 nM for the second.

Compared with CCOc1ccc(C(=O)CCC(=O)Nc2cc(-c3ccc(C4CCCCC4)cc3)cc(-c3ccccc3)n2)cc1OCC [Example 110, N-[4-(4-cyclohexylphenyl)-6-phenylpyridin-2-yl]-4-(3,4-diethoxyphenyl)-4-oxobutanamide], CCOc1ccc(C(=O)CCC(=O)Nc2cc(-c3ccc(N(C)C)cc3)cc(-c3ccccc3)n2)cc1OCC [Example 131, 4-(3,4-diethoxyphenyl)-N-{4-[4-(dimethylamino)phenyl]-6-phenylpyridin-2-yl}-4-oxobutanamide] is lower in IC50: 500 to 10000 nM for the first, 50 to 500 nM for the second. The second is the more potent here.

CCCc1cc(C(=O)CCC(=O)Nc2cc(-c3ccccc3)c(Cc3ccccc3)s2)ccc1OCC [Example 97, N-(5-benzyl-4-phenyl-2-thienyl)-4-(4-ethoxy-3-propylphenyl)-4-oxobutanamide] and O=C(CCC(=O)c1ccc2c(c1)CCCC2)Nc1cc(-c2ccccc2)c(Cc2ccccc2)s1 [Example 99, N-(5-benzyl-4-phenyl-2-thienyl)-4-oxo-4-(5,6,7,8-tetrahydronaphthalen-2-yl)butanamide] fall in the same range of IC50: 50 to 500 nM for the first, 50 to 500 nM for the second.

First: CCc1ccc(C(=O)CCC(=O)Nc2nc(-c3ccccc3)c(Cc3ccccc3)s2)s1 [Example 72, N-(5-benzyl-4-phenyl-1,3-thiazol-2-yl)-4-(5-ethyl-2-thienyl)-4-oxobutanamide]
Second: O=C(CCC(=O)c1ccc2c(c1)CCO2)Nc1cc(-c2ccccc2CO)cc(-c2ccccc2)n1 [Example 179, 4-(2,3-dihydro-1-benzofuran-5-yl)-N-{4-[2-(hydroxymethyl)phenyl]-6-phenylpyridin-2-yl}-4-oxobutanamide]
The IC50 of the first is lower: 10 to 50 nM for the first, 50 to 500 nM for the second. The first is the more potent here.

O=C(CCC(=O)c1ccc2c(c1)CCO2)Nc1cc(-c2ccncc2)cc(-c2ccccc2)n1 [Example 116, 4-(2,3-dihydro-1-benzofuran-5-yl)-4-oxo-N-(6-phenyl-4,4′-bipyridin-2-yl)butanamide] and O=C(O)CCc1ccc(-c2cc(NC(=O)CCC(=O)c3ccc4c(c3)CCO4)nc(-c3ccccc3)c2)cc1 [Example 157, 3-[4-(2-{[4-(2,3-dihydro-1-benzofuran-5-yl)-4-oxobutanoyl]amino}-6-phenylpyridin-4-yl)phenyl]propanoic acid] fall in the same range of IC50: 500 to 10000 nM for the first, 500 to 10000 nM for the second.

First: CCOc1ccc(C(=O)CCC(=O)Nc2cc(-c3cccc(CO)c3)cc(-c3ccccc3)n2)cc1OCC [Example 136, 4-(3,4-diethoxyphenyl)-N-{4-[3-(hydroxymethyl)phenyl]-6-phenylpyridin-2-yl}-4-oxobutanamide]
Second: CCOc1ccc(C(=O)CCC(=O)Nc2cc(-c3cccc(CC#N)c3)cc(-c3ccccc3)n2)cc1OCC [Example 133, N-{4-[3-(cyanomethyl)phenyl]-6-phenylpyridin-2-yl}-4-(3,4-diethoxyphenyl)-4-oxobutanamide]
The IC50 of the first is higher: 50 to 500 nM for the first, 10 to 50 nM for the second.

CCOc1ccc(C(=O)CCC(=O)Nc2cc(-c3ccccc3OC)cc(-c3ccccc3)n2)cc1OCC [Example 146, 4-(3,4-diethoxyphenyl)-N-[4-(2-methoxyphenyl)-6-phenylpyridin-2-yl]-4-oxobutanamide] and CCOc1ccc(C(=O)CCC(=O)Nc2cc(-c3ccccc3C#N)cc(-c3ccccc3)n2)cc1OCC [Example 144, N-[4-(2-cyanophenyl)-6-phenylpyridin-2-yl]-4-(3,4-diethoxyphenyl)-4-oxobutanamide] cannot be ordered by IC50: at most 10 nM for the first, at most 10 nM for the second.

Compared with CCOc1ccc(C(=O)CCC(=O)Nc2cc(-c3ccccn3)c3ccccc3n2)cc1OCC [Example 89, 4-(3,4-diethoxyphenyl)-4-oxo-N-[4-(pyridin-2-yl)quinolin-2-yl]butanamide], O=C(CCC(=O)c1ccc2c(c1)CCO2)Nc1cc(-c2ccc(N3CCOCC3)cc2)cc(-c2ccccc2)n1 [Example 160, 4-(2,3-dihydro-1-benzofuran-5-yl)-N-[4-(4-(morpholin-4-yl)phenyl)-6-phenylpyridin-2-yl]-4-oxobutanamide] is higher in IC50: 50 to 500 nM for the first, 500 to 10000 nM for the second.
